In PubChem BioAssay (NCI):
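Following 48 hours of exposure in 96-well plates, responses at five concentrations were used to interpolate endpoints linearly. GI50 marks 50% less growth. TGI marks complete inhibition of growth.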

How the values were obtained:
Experiment in all cases: NCI tumour cell line growth inhibition, 48 h
[1] = tested on: RXF 393 renal
[2] = tested on: 786-0 renal
[3] = tested on: PC-3 prostate
[4] = tested on: HL-60(TB) leukemia
[5] = tested on: SNB-75 CNS
[6] = tested on: K-562 leukemia
[7] = tested on: SN12C renal
[8] = tested on: MOLT-4 leukemia
[9] = tested on: NCI-H522 lung
[10] = tested on: UO-31 renal

| SMILES | GI50 [1] | TGI [1] | GI50 [2] | TGI [2] | GI50 [3] | TGI [3] | GI50 [4] | TGI [4] | GI50 [5] | TGI [5] | GI50 [6] | TGI [6] | GI50 [7] | TGI [7] | GI50 [8] | TGI [8] | TGI [9] | TGI [10] | GI50 [9] | GI50 [10] |
| --- | --- | --- | --- | --- | --- | --- | --- | --- | --- | --- | --- | --- | --- | --- | --- | --- | --- | --- | --- | --- |
| Oc1ccc(CCNc2nc3ccccc3c3[nH]c4ccccc4c23)cc1O | 1.91 µM | 3.59 µM | 1.62 µM | 2.98 µM | 1.51 µM | 3.63 µM | 2.07 µM | 4.36 µM | 15.9 µM | 33.2 µM | 1.83 µM | 4.13 µM | 1.94 µM | 7.29 µM | 2.16 µM | 5.38 µM | – | – | – | – |
| CCC(=O)N1C(=S)SC[C@H]1C(=O)OC | – | > 100 µM | – | > 100 µM | – | – | – | > 100 µM | – | > 100 µM | – | > 100 µM | – | > 100 µM | – | > 100 µM | > 100 µM | > 100 µM | – | – |
| Cc1cc[c]([Sb]2[O]C(CO)C(C(O)C(O)C(=O)O)[O]2)cc1 (configuration not stated) | 28.2 µM | 84.7 µM | 38.4 µM | > 100 µM | 57.7 µM | > 100 µM | – | – | 23 µM | 76.8 µM | 46.5 µM | > 100 µM | 51.9 µM | > 100 µM | 78.7 µM | > 100 µM | > 100 µM | > 100 µM | 42.7 µM | > 100 µM |
| O=NN(CC1(O)OCC(O)C(O)C1O)C(Cc1c[nH]c2ccccc12)C(=O)O (configuration not stated) | – | > 100 µM | – | > 100 µM | – | – | – | > 100 µM | – | > 100 µM | – | > 100 µM | – | – | – | > 100 µM | > 100 µM | – | – | – |
| CCO/C(O)=c1/s/c(=C2/SC(=S)N(c3ccc(C)cc3)C2=O)n(-c2ccccc2)c1=N | – | – | – | 77.4 µM | – | > 100 µM | – | > 100 µM | – | 22 µM | – | > 100 µM | – | > 100 µM | – | > 100 µM | > 100 µM | > 100 µM | – | – |
| COc1ccc(C(O)C(c2ccc(OCc3ccccc3)cc2)c2ccc(OCc3ccccc3)cc2)cc1 (configuration not stated) | – | > 100 µM | – | > 100 µM | – | – | – | > 100 µM | – | > 100 µM | – | > 100 µM | – | > 100 µM | – | – | > 100 µM | > 100 µM | – | – |
| O=C1/C(=C/c2cc(O)c(O)c(O)c2)Oc2cc(O)cc(OC3OC(CO)C(O)C(O)C3O)c21 (configuration not stated) | – | – | – | > 100 µM | – | – | – | 43.1 µM | – | > 100 µM | – | 34.9 µM | – | 33 µM | – | 43.4 µM | – | > 100 µM | – | – |
| CSC(=Nc1ccc([N+](=O)[O-])cc1C#N)NC(=O)c1ccccc1 | – | > 100 µM | – | > 100 µM | – | – | – | > 100 µM | – | > 100 µM | – | > 100 µM | – | > 100 µM | – | > 100 µM | – | – | – | – |
| Cc1cc2c(cc1Cl)SC(=Nc1ccc(Cl)cc1)N(S(=O)(=O)c1ccc(Br)s1)S2(=O)=O | – | – | 11.7 µM | 24.7 µM | 12.5 µM | 27.1 µM | 22.4 µM | 46.8 µM | – | – | 16.4 µM | 77.5 µM | 14.1 µM | 32.6 µM | – | – | > 100 µM | 61 µM | 37.3 µM | 24.6 µM |
| COc1ccc(-c2cc(=O)c3c(C)ccnc3[nH]2)cc1 | – | 41.6 µM | 25.3 µM | > 100 µM | 18.1 µM | > 100 µM | 4.37 µM | 17.3 µM | – | – | – | > 100 µM | – | > 100 µM | – | 50 µM | > 100 µM | > 100 µM | – | – |
| O=c1c2ccccc2c(=O)n2n1-c1cccc(c1)CSSCc1cccc-2c1 | – | > 100 µM | – | > 100 µM | – | – | – | – | – | – | > 100 µM | > 100 µM | > 100 µM | > 100 µM | > 100 µM | > 100 µM | > 100 µM | > 100 µM | > 100 µM | > 100 µM |
| CCN(CC)CC(C(=O)Nc1c(C)cccc1C)/C(C)=N\NC(=S)NN (configuration not stated) | – | > 100 µM | – | > 100 µM | – | – | – | > 100 µM | – | > 100 µM | – | > 100 µM | – | – | – | > 100 µM | > 100 µM | > 100 µM | – | – |
| O=C1CN=C(c2ccccc2)c2ccncc2N1 | – | > 100 µM | – | > 100 µM | – | – | – | > 100 µM | – | > 100 µM | – | > 100 µM | – | > 100 µM | – | > 100 µM | > 100 µM | > 100 µM | – | – |
| CCN(Cc1ccccc1)c1ccc(/C=C2\COc3ccccc3C2=O)cc1 | 758 µM | > 1000 µM | > 1000 µM | > 1000 µM | 343 µM | > 1000 µM | 221 µM | > 1000 µM | > 1000 µM | > 1000 µM | – | – | > 1000 µM | > 1000 µM | 105 µM | > 1000 µM | > 1000 µM | > 1000 µM | 156 µM | 286 µM |
| Clc1ccc2c(NC3CCC(NC4CCCCC4)CC3)ccnc2c1 (configuration not stated) | 3.61 µM | 16.6 µM | 11.9 µM | 24.5 µM | 11.2 µM | 43.2 µM | – | – | 4.63 µM | 19.4 µM | – | – | 14.7 µM | 68.3 µM | – | – | 14 µM | 16 µM | 3.37 µM | 3.42 µM |
| O=c1[nH]c(=O)n(Cc2ccc(C34CC5CC(CC(C5)C3)C4)c(O)c2)cc1F | 5.28 µM | 18.3 µM | 13.8 µM | 28.5 µM | – | – | 3.05 µM | 16 µM | 12.8 µM | 32 µM | 3.49 µM | 18.2 µM | 13.5 µM | 26.8 µM | 12.4 µM | 32.4 µM | 31.9 µM | 29.8 µM | 13.1 µM | 14.2 µM |
| CCOP(=O)(OCC)C(C(=O)OC)C(=O)C(=O)Nc1cccc([N+](=O)[O-])c1 (configuration not stated) | – | > 100 µM | – | > 100 µM | – | – | – | > 100 µM | – | > 100 µM | – | > 100 µM | – | > 100 µM | – | > 100 µM | > 100 µM | > 100 µM | – | – |
| CC(C)N1CCOC(c2ccc(O)c(O)c2)C1 (configuration not stated) | – | > 100 µM | – | > 100 µM | – | – | – | > 100 µM | – | > 100 µM | – | > 100 µM | – | > 100 µM | – | > 100 µM | > 100 µM | > 100 µM | – | – |
| CC1COS(=O)N1c1ccccc1 (configuration not stated) | – | > 100 µM | – | > 100 µM | – | – | – | > 100 µM | – | > 100 µM | – | > 100 µM | – | – | – | > 100 µM | > 100 µM | > 100 µM | – | – |
